Reference: ChEMBL document CHEMBL6103615, “Thymidylate Kinase-Targeted Antimicrobial Peptides via Phage Display: A Novel Strategy against Gram-Negative Bacteria” (J Med Chem, 2025)
pKd: −log10 of the molar value. Activity calls are given as the source filed them.

Columns and labels:
Escherichia coli [1] = assay: Antibacterial activity against Escherichia coli 078 incubated for 12 to 18 hrs by microbroth dilution method; type: functional; conditions: time 12-18 hrs
Salmonella typhimurium = assay: Antibacterial activity against Salmonella typhimurium 7731 incubated for 12 to 18 hrs by microbroth dilution method; type: functional, Salmonella enterica subsp. enterica serovar Typhimurium; conditions: Salmonella enterica, time 12-18 hrs
Enterococcus faecalis = assay: Antibacterial activity against Enterococcus faecalis 29212 incubated for 12 to 18 hrs by microbroth dilution method; type: functional; conditions: time 12-18 hrs
Lactococcus lactis = assay: Antibacterial activity against Lactococcus lactis NZ9000 incubated for 12 to 18 hrs by microbroth dilution method; type: functional; conditions: time 12-18 hrs
Staphylococcus aureus [2] = assay: Antibacterial activity against Staphylococcus aureus 29213 incubated for 12 to 18 hrs by microbroth dilution method; type: functional; conditions: time 12-18 hrs
[3] = tested on: Lacticaseibacillus rhamnosus; assay: Antibacterial activity against Lactobacillus rhamnosus 7469 incubated for 12 to 18 hrs by microbroth dilution method; type: functional; conditions: time 12-18 hrs
[4] = Antibacterial activity against Salmonella choleraesuis 21493 incubated for 12 to 18 hrs by microbroth dilution method; type: functional, Salmonella enterica subsp. enterica serovar Choleraesuis; conditions: Salmonella enterica, time 12-18 hrs
[5] = Cytotoxicity against porcine IPEC-J2 cells assessed as cell viability at 128 uM incubated for 4 hrs by MTT assay relative to control; type: toxicity, cell-based, Sus scrofa; conditions: pig, read-out: Activity
[6] = Cytotoxicity against mouse RAW264.7 cells assessed as cell viability at 128 uM incubated for 4 hrs by MTT assay relative to control; type: toxicity, cell-based; conditions: read-out: Activity
Escherichia coli [7] = assay: Antibacterial activity against Escherichia coli K88 incubated for 12 to 18 hrs by microbroth dilution method; type: functional; conditions: time 12-18 hrs
[8] = tested on: Staphylococcus epidermidis; assay: Antibacterial activity against Staphylococcus epidermidis 12228 incubated for 12 to 18 hrs by microbroth dilution method; type: functional; conditions: time 12-18 hrs
[9] = tested on: Lactiplantibacillus plantarum; assay: Antibacterial activity against Lactobacillus plantarum 8014 incubated for 12 to 18 hrs by microbroth dilution method; type: functional; conditions: time 12-18 hrs
[10] = Relative hydrophobic moment of compound; type: physicochemical
Escherichia coli [11] = assay: Antibacterial activity against Escherichia coli K99 incubated for 12 to 18 hrs by microbroth dilution method; type: functional; conditions: time 12-18 hrs
Staphylococcus aureus [12] = assay: Antibacterial activity against Staphylococcus aureus 25923 incubated for 12 to 18 hrs by microbroth dilution method; type: functional; conditions: time 12-18 hrs
[13] = Hydrophobicity of compound; type: physicochemical
Escherichia coli [14] = assay: Antibacterial activity against Escherichia coli 1515 incubated for 12 to 18 hrs by microbroth dilution method; type: functional; conditions: time 12-18 hrs
Staphylococcus aureus [15] = assay: Antibacterial activity against methicillin-resistant Staphylococcus aureus 43300 incubated for 12 to 18 hrs by microbroth dilution method; type: functional; conditions: time 12-18 hrs
Pseudomonas aeruginosa [16] = assay: Antibacterial activity against Pseudomonas aeruginosa 27853 incubated for 12 to 18 hrs by microbroth dilution method; type: functional; conditions: time 12-18 hrs
Pseudomonas aeruginosa [17] = assay: Antibacterial activity against Pseudomonas aeruginosa PAO1 incubated for 12 to 18 hrs by microbroth dilution method; type: functional; conditions: time 12-18 hrs
[18] = Hemolytic activity against human red blood cells at 2 to 128 uM relative to control; type: toxicity, cell-based, Erythrocyte; conditions: dose 2-128 µM, read-out: Activity
Escherichia coli [19] = assay: Induction of morphological changes in Escherichia coli K88 assessed as membrane contraction at 2 uM incubated for 1 hr by SEM analysis; type: functional, organism-based
Escherichia coli [20] = assay: Induction of morphological changes in Escherichia coli K88 assessed as cytoplasmic leakage at 2 uM incubated for 1 hr by TEM analysis; type: functional, organism-based
Bacteria [21] = assay: Antibacterial activity against bacterial cells at 1 to 128 uM in presence of NaCl; type: functional, organism-based; conditions: dose 1-128 µM
Escherichia coli [22] = assay: Induction of morphological changes in Escherichia coli K88 assessed as membrane folding at 2 uM incubated for 1 hr by SEM analysis; type: functional, organism-based
Bacteria [23] = assay: Antibacterial activity against bacterial cells at 1 to 128 uM in presence of CaCl; type: functional, organism-based; conditions: dose 1-128 µM
Bacteria [24] = assay: Antibacterial activity against bacterial cells at pH 2; type: functional
Escherichia coli [25] = assay: Disruption of membrane integrity in Escherichia coli K88 at 2 uM by PI staining based flow cytometry (reference value: 0.1 %); type: functional
Bacteria [26] = assay: Antibacterial activity against bacterial cells at pH 4 to 10; type: functional
Escherichia coli [27] = assay: Induction of morphological changes in Escherichia coli K88 assessed as membrane permeability at edges at 2 uM incubated for 1 hr by TEM analysis; type: functional, organism-based
Bacteria [28] = assay: Antibacterial activity against bacterial cells at 100 degreeC at 1 to 64 uM incubated for 60 mins; type: functional, organism-based; conditions: dose 1-64 µM
Escherichia coli [29] = assay: Induction of ROS generation in Escherichia coli K88 assessed as increase in fluorescence intensity incubated for 1 hr by DCFH-DA dye based analysis; type: functional, organism-based
Bacteria [30] = assay: Antibacterial activity against bacterial cells at pH 12; type: functional
[31] = Effect on secondary structure of compound in PBS assessed as formation of alpha-helical conformation at 100 uM by CD analysis; type: physicochemical; conditions: buffer
Escherichia coli [32] = assay: Induction of resistance development in Escherichia coli K88 at sub-MIC measured after 20 passages; type: functional, organism-based
Escherichia coli [33] = assay: Inhibition of DNA migration in Escherichia coli K88 at 64 uM incubated for 40 mins by agarose gel electrophoresis.; type: functional, organism-based
Bacteria [34] = assay: Antibacterial activity against bacterial cells at pH 2 to 12; type: functional
Bacteria [35] = assay: Antibacterial activity against bacterial cells at 1 to 64 uM incubated for 4 hrs in presence of 50 percent serum; type: functional, organism-based; conditions: dose 1-64 µM
[36] = Binding affinity to 6xHis-tagged recombinant Escherichia coli TMK assessed as dissociation constant by BLI assay

H-FASSHPSWKKIWKPGIKKWIK-OH
16 µM: MIC (Salmonella typhimurium) | MIC [4] | MIC (Pseudomonas aeruginosa [17])
0.465: Activity [13]
0.55: Activity [10]
128 µM: MIC (Enterococcus faecalis) | MIC (Lactococcus lactis) | MIC (Staphylococcus aureus [2]) | MIC [3] | MIC [8] | MIC [9] | MIC (Staphylococcus aureus [12]) | MIC (Staphylococcus aureus [15])
32 µM: MIC (Escherichia coli [1]) | MIC (Escherichia coli [7]) | MIC (Escherichia coli [11]) | MIC (Escherichia coli [14]) | MIC (Pseudomonas aeruginosa [16])
> 80%: viability at 4 h, 128 µM [5] | viability at 4 h, 128 µM [6]

H-HSDANAWWKKIWKPGIKKWIK-OH
0.406: Activity [13]
16 µM: MIC [4] | MIC (Escherichia coli [11]) | MIC (Escherichia coli [14]) | MIC (Pseudomonas aeruginosa [17])
32 µM: MIC (Salmonella typhimurium) | MIC (Escherichia coli [7]) | MIC (Pseudomonas aeruginosa [16])
128 µM: MIC (Enterococcus faecalis) | MIC (Lactococcus lactis) | MIC (Staphylococcus aureus [2]) | MIC [3] | MIC [8] | MIC [9] | MIC (Staphylococcus aureus [12]) | MIC (Staphylococcus aureus [15])
8 µM: MIC (Escherichia coli [1])
0.455: Activity [10]
> 80%: viability at 4 h, 128 µM [5] | viability at 4 h, 128 µM [6]

H-RLTTMVHWKKIWKPGIKKWIK-OH
16 µM: MIC [4]
8 µM: MIC (Escherichia coli [1]) | MIC (Salmonella typhimurium) | MIC (Escherichia coli [11]) | MIC (Escherichia coli [14]) | MIC (Pseudomonas aeruginosa [16])
0.51: Activity [13]
4 µM: MIC (Escherichia coli [7]) | MIC (Pseudomonas aeruginosa [17])
0.439: Activity [10]
> 80%: viability at 4 h, 128 µM [5] | viability at 4 h, 128 µM [6]
< 5%: hemolysis at up to 128 µM [18]
128 µM: MIC (Enterococcus faecalis) | MIC (Lactococcus lactis) | MIC (Staphylococcus aureus [2]) | MIC [3] | MIC [8] | MIC [9] | MIC (Staphylococcus aureus [12]) | MIC (Staphylococcus aureus [15])

H-WKKIWKPGIKKWIK-OH
128 µM: MIC (Enterococcus faecalis) | MIC (Lactococcus lactis) | MIC (Staphylococcus aureus [2]) | MIC [3] | MIC [8] | MIC [9] | MIC (Staphylococcus aureus [12]) | MIC (Staphylococcus aureus [15])
active: Activity (Bacteria [28]) | Activity (Escherichia coli [29]) Dose-dependent-effect | inhibition (Escherichia coli [33]) | Activity (Bacteria [35])
0.495: Activity [13]
16.3%: Activity (Escherichia coli [25])
> 80%: viability at 4 h, 128 µM [5] | viability at 4 h, 128 µM [6]
< 5%: hemolysis at up to 128 µM [18]
Active: Activity [31]
inactive: Activity (Escherichia coli [19]) | Activity (Escherichia coli [20]) | Activity (Bacteria [21]) | Activity (Escherichia coli [22]) | Activity (Bacteria [23]) | Activity (Escherichia coli [27]) | Activity (Escherichia coli [32])
> 12.00: pKd [36]
16 µM: MIC [4] | MIC (Bacteria [26]) | MIC (Escherichia coli [7]) | MIC (Escherichia coli [11]) | MIC (Bacteria [34]) | MIC (Pseudomonas aeruginosa [17])
32 µM: MIC (Escherichia coli [1]) | MIC (Salmonella typhimurium) | MIC (Bacteria [24]) | MIC (Bacteria [30]) | MIC (Escherichia coli [14]) | MIC (Pseudomonas aeruginosa [16])
0.727: Activity [10]

H-WTSNDTAWKKIWKPGIKKWIK-OH
128 µM: MIC (Escherichia coli [1]) | MIC (Enterococcus faecalis) | MIC (Lactococcus lactis) | MIC (Staphylococcus aureus [2]) | MIC [3] | MIC [8] | MIC [9] | MIC (Staphylococcus aureus [12]) | MIC (Staphylococcus aureus [15]) | MIC (Pseudomonas aeruginosa [16])
< 5%: hemolysis at up to 128 µM [18]
0.532: Activity [10]
> 80%: viability at 4 h, 128 µM [5] | viability at 4 h, 128 µM [6]
64 µM: MIC (Salmonella typhimurium) | MIC [4] | MIC (Escherichia coli [7]) | MIC (Escherichia coli [11]) | MIC (Escherichia coli [14]) | MIC (Pseudomonas aeruginosa [17])
0.41: Activity [13]

H-YTVSATYWKKIWKPGIKKWIK-OH
32 µM: MIC (Pseudomonas aeruginosa [16])
128 µM: MIC (Enterococcus faecalis) | MIC (Lactococcus lactis) | MIC (Staphylococcus aureus [2]) | MIC [3] | MIC [8] | MIC [9] | MIC (Staphylococcus aureus [12]) | MIC (Staphylococcus aureus [15])
8 µM: MIC (Escherichia coli [1]) | MIC (Salmonella typhimurium) | MIC (Escherichia coli [7]) | MIC (Escherichia coli [11]) | MIC (Escherichia coli [14]) | MIC (Pseudomonas aeruginosa [17])
> 80%: viability at 4 h, 128 µM [5] | viability at 4 h, 128 µM [6]
0.452: Activity [10]
0.517: Activity [13]
< 5%: hemolysis at up to 128 µM [18]
16 µM: MIC [4]
